Our source for the IC50 values is US11858941B2, “Heterocyclic and heteroaryl compounds for treating Huntington's disease” (PTC THERAPEUTICS, INC., priority 2018, dated 2024).

This experiment concerns Endogenous Huntingtin Protein. Nature of the experiment: Endogenous Huntingtin Protein Assay (Meso Scale Discovery ELISA-based electrochemiluminescence). It is filed as cell-based. The note with it: MSD plates coated with MW1 (expanded polyglutamine) or MAB2166 capture antibody; lysates. As for the experimental part:
Compounds of Formula (I) were tested using the Meso Scale Discovery (MSD) Assay provided in International Application No. PCT/US2016/066042, filed on Dec. 11, 2016 and claiming priority to United States Provisional Application U.S. 62/265,652 filed on Dec. 10, 2015, the entire contents of which are incorporated herein by reference.
The Endogenous Huntingtin Protein assay used in Example 1 was developed using the ELISA-based MSD electrochemiluminescence assay platform.
Endogenous Huntingtin Protein Assay
Meso Scale Discovery (MSD) 96-well or 384-well plates were coated overnight at 4° C. with MW1 (expanded polyglutamine) or MAB2166 monoclonal antibody (for capture) at a concentration of 1 μg/mL in PBS (30 μL per well). Plates were then washed three times with 300 μL wash buffer (0.05% Tween-20 in PBS) and blocked (100 μL blocking buffer; 5% BSA in PBS) for 4-5 hours at room temperature with rotational shaking and then washed three times with wash buffer.
Samples (25 μL) were transferred to the antibody-coated MSD plate and incubated overnight at 4° C. After removal of the lysates, the plate was washed three times with wash buffer, and 25 μL of #5656S (Cell signaling; rabbit monoclonal) secondary antibody (diluted to 0.25 μg/mL in 0.05% Tween-20 in blocking buffer) was added to each well and incubated with shaking for 1 Hour at room temperature. Following incubation with the secondary antibody, the wells were rinsed with wash buffer after which 25 μL of goat anti-rabbit SULFO TAG secondary detection antibody (required aspect of the MSD system) (diluted to 0.25 μg/mL in 0.05% Tween-20 in blocking buffer) was added to each well and incubated with shaking for 1 hour at room temperature. After rinsing three times with wash buffer, 150 μL of read buffer T with surfactant (MSD) were added to each empty well, and the plate was imaged on a SI 6000 imager (MSD) according to manufacturers' instructions provided for 96- or 384-well plates.
A general note: An ELISA detects its analyte on a solid surface through an enzyme-linked reagent.
As to `CN(C)c1ccc(-c2ccc(-c3cc4nnn(C5CC(C)(C)NC(C)(C)C5)c4nn3)c(O)c2)cn1` [Cpd 84, 5-[6-(dimethylamino)pyridin-3-yl]-2-[3-(2,2,6,6-tetramethylpiperidin-4-yl)-3H-[1,2,3]triazolo[4,5-c]pyridazin-6-yl]phenol], the IC50 (as a rule, the concentration that gives 50% inhibition) was in the range of 1000 to 3000 nM.
For the compound `CC1(C)CC(n2nnc3cc(-c4ccc(-c5ccc6[nH]nnc6n5)cc4O)nnc32)CC(C)(C)N1` [Cpd 147, 2-[3-(2,2,6,6-tetramethylpiperidin-4-yl)-3H-[1,2,3]triazolo[4,5-c]pyridazin-6-yl]-5-(1H-[1,2,3]triazolo[4,5-b]pyridin-5-yl)phenol], the IC50 is 1000 to 3000 nM.
`CC1(C)CC(n2ncc3cc(-c4ccc(-c5cn[nH]c5)cc4O)nnc32)CC(C)(C)N1` [Cpd 22, 5-(1H-pyrazol-4-yl)-2-[1-(2,2,6,6-tetramethylpiperidin-4-yl)-1H-pyrazolo[3,4-c]pyridazin-5-yl]phenol]: the IC50 was ≤ 100 nM.
In turn, `CC1(C)CC(n2nnc3cc(-c4cc5c(cc4O)/C(=N/O)CC5)nnc32)CC(C)(C)N1` [Cpd 82, (3E)-3-(hydroxyimino)-6-[3-(2,2,6,6-tetramethylpiperidin-4-yl)-3H-[1,2,3]triazolo[4,5-c]pyridazin-6-yl]-2,3-dihydro-1H-inden-5-ol] yielded a half-maximal inhibitory concentration (IC50) of 100 to 500 nM.
For `CC1(C)CC(n2nnc3cc(-c4ncc(-c5cn[nH]c5)cc4O)nnc32)CC(C)(C)N1` [Cpd 140, 5-(1H-pyrazol-4-yl)-2-[3-(2,2,6,6-tetramethylpiperidin-4-yl)-3H-[1,2,3]triazolo[4,5-c]pyridazin-6-yl]pyridin-3-ol] the value was ≤ 100 nM; for `CC1(C)CC(n2nnc3cc(-c4cc(F)c(-c5cn[nH]c5)cc4F)nnc32)CC(C)(C)N1` [Cpd 14, 6-[2,5-difluoro-4-(1H-pyrazol-4-yl)phenyl]-3-(2,2,6,6-tetramethylpiperidin-4-yl)-3H-[1,2,3]triazolo[4,5-c]pyridazine], 100 to 500 nM; for `CC1(C)CC(n2ncc3cc(-c4ccc(-c5ccncc5)cc4O)nnc32)CC(C)(C)N1` [Cpd 165, 5-(pyridin-4-yl)-2-[1-(2,2,6,6-tetramethylpiperidin-4-yl)-1H-pyrazolo[3,4-c]pyridazin-5-yl]phenol], ≤ 100 nM.
The same measure for `Cn1ccc(-c2ccc(-c3cc4cnn(C5CC(C)(C)NC(C)(C)C5)c4nn3)c(O)c2)n1` [Cpd 169, 5-(1-methyl-1H-pyrazol-3-yl)-2-[1-(2,2,6,6-tetramethylpiperidin-4-yl)-1H-pyrazolo[3,4-c]pyridazin-5-yl]phenol]: ≤ 100 nM.
The compound `CNc1nc2cc(-c3ccc(-c4cn[nH]c4)cc3O)nnc2n1C1CC(C)(C)NC(C)(C)C1` [Cpd 42, 2-[6-(methylamino)-7-(2,2,6,6-tetramethylpiperidin-4-yl)-7H-imidazo[4,5-c]pyridazin-3-yl]-5-(1H-pyrazol-4-yl)phenol] registered an IC50 of 100 to 500 nM.
For `CC1(C)CC(n2nnc3cc(-c4ccc(-c5ccncc5)cc4O)nnc32)CC(C)(C)N1` [Cpd 66, 5-(pyridin-4-yl)-2-[3-(2,2,6,6-tetramethylpiperidin-4-yl)-3H-[1,2,3]triazolo[4,5-c]pyridazin-6-yl]phenol] the value was ≤ 100 nM; for `CC1(C)CC(n2c(O)nc3cc(-c4ccc(-c5cn[nH]c5)cc4O)nnc32)CC(C)(C)N1` [Cpd 9, 3-[2-hydroxy-4-(1H-pyrazol-4-yl)phenyl]-7-(2,2,6,6-tetramethylpiperidin-4-yl)-7H-imidazo[4,5-c]pyridazin-6-ol], 1000 to 3000 nM.
Turning to `CC1(C)CC(n2nnc3cc(-c4ccc(-n5cnc(F)c5)cc4O)nnc32)CC(C)(C)N1` [Cpd 143, 5-(4-fluoro-1H-imidazol-1-yl)-2-[3-(2,2,6,6-tetramethylpiperidin-4-yl)-3H-[1,2,3]triazolo[4,5-c]pyridazin-6-yl]phenol], the IC50 is ≤ 100 nM.
The same measure for `CC1(C)CC(n2nnc3cc(-c4ccc(-c5c[nH]cn5)cc4O)nnc32)CC(C)(C)N1` [Cpd 115, 5-(1H-imidazol-4-yl)-2-[3-(2,2,6,6-tetramethylpiperidin-4-yl)-3H-[1,2,3]triazolo[4,5-c]pyridazin-6-yl]phenol]: 100 to 500 nM; for `CC1(C)CC(c2csc3cc(-c4ccc(-c5cn[nH]c5)cc4O)nnc23)CC(C)(C)N1` [Cpd 24, 5-(1H-pyrazol-4-yl)-2-[7-(2,2,6,6-tetramethylpiperidin-4-yl)thieno[3,2-c]pyridazin-3-yl]phenol]: ≤ 100 nM; for `CC1(C)CC(n2cnc3nc(-c4cc(F)c(-c5cn[nH]c5)cc4F)cnc32)CC(C)(C)N1` [Cpd 2, 5-[2,5-difluoro-4-(1H-pyrazol-4-yl)phenyl]-1-(2,2,6,6-tetramethylpiperidin-4-yl)-1H-imidazo[4,5-b]pyrazine]: 100 to 500 nM.
As to `Cc1ccnn1-c1ccc(-c2cc3nnn(C4CC(C)(C)NC(C)(C)C4)c3nn2)c(O)c1` [Cpd 155, 5-(5-methyl-1H-pyrazol-1-yl)-2-[3-(2,2,6,6-tetramethylpiperidin-4-yl)-3H-[1,2,3]triazolo[4,5-c]pyridazin-6-yl]phenol], the IC50 is 3000 to 9000 nM.
Turning to `Cn1cc(-c2ccc(-c3cc4nnn(C5CC(C)(C)NC(C)(C)C5)c4nn3)c(O)c2)c(Cl)n1` [Cpd 127, 5-(3-chloro-1-methyl-1H-pyrazol-4-yl)-2-[3-(2,2,6,6-tetramethylpiperidin-4-yl)-3H-[1,2,3]triazolo[4,5-c]pyridazin-6-yl]phenol], the half-maximal inhibitory concentration (IC50) was ≤ 100 nM.
As to `CCNc1nc2cc(-c3ccc(-c4cn[nH]c4)cc3O)nnc2n1C1CC(C)(C)NC(C)(C)C1` [Cpd 49, 2-[6-(ethylamino)-7-(2,2,6,6-tetramethylpiperidin-4-yl)-7H-imidazo[4,5-c]pyridazin-3-yl]-5-(1H-pyrazol-4-yl)phenol], the IC50 fell in the range of 1000 to 3000 nM.
Consider `Fc1c(-c2cn[nH]c2)ccc(-c2cc3c(nn2)N(C2CC4CCC(C2)N4)CC3)c1F` (stereo not drawn) [Cpd 36, 7-[(3-exo)-8-azabicyclo[3.2.1]oct-3-yl]-3-[2,3-difluoro-4-(1H-pyrazol-4-yl)phenyl]-6,7-dihydro-5H-pyrrolo[2,3-c]pyridazine], for which the half-inhibitory concentration (IC50) fell in the range of 100 to 500 nM.
Turning to `CC1(C)CC(n2nnc3cc(-c4cc(O)c(-c5cn[nH]c5)cc4F)nnc32)CC(C)(C)N1` [Cpd 33, 4-fluoro-2-(1H-pyrazol-4-yl)-5-[3-(2,2,6,6-tetramethylpiperidin-4-yl)-3H-[1,2,3]triazolo[4,5-c]pyridazin-6-yl]phenol], the IC50 lay in the range of 500 to 1000 nM.
Compound `Cc1nc2cc(-c3cc(F)c(-c4cn[nH]c4)cc3F)nnc2n1C1CC(C)(C)NC(C)(C)C1` [Cpd 6, 3-[2,5-difluoro-4-(1H-pyrazol-4-yl)phenyl]-6-methyl-7-(2,2,6,6-tetramethylpiperidin-4-yl)-7H-imidazo[4,5-c]pyridazine] displayed a half-maximal inhibitory concentration (IC50) of 500 to 1000 nM.
As to `CC1(C)CC(n2nnc3cc(-c4ccc(-n5nccn5)cc4O)nnc32)CC(C)(C)N1` [Cpd 163, 2-[3-(2,2,6,6-tetramethylpiperidin-4-yl)-3H-[1,2,3]triazolo[4,5-c]pyridazin-6-yl]-5-(2H-1,2,3-triazol-2-yl)phenol], the IC50 is ≤ 100 nM.
For `Oc1cc(-c2cn[nH]c2)ccc1-c1cc2cnn(C3CCNCC3)c2nn1` [Cpd 21, 2-[1-(piperidin-4-yl)-1H-pyrazolo[3,4-c]pyridazin-5-yl]-5-(1H-pyrazol-4-yl)phenol] the value was 1000 to 3000 nM.
The same measure for `Cn1ncc(-c2ccc(-c3cc4nnn(C5CC(C)(C)NC(C)(C)C5)c4nn3)c(O)c2)n1` [Cpd 151, 5-(2-methyl-2H-1,2,3-triazol-4-yl)-2-[3-(2,2,6,6-tetramethylpiperidin-4-yl)-3H-[1,2,3]triazolo[4,5-c]pyridazin-6-yl]phenol]: ≤ 100 nM; for `CC1(C)CC(c2c[nH]c3cc(-c4ccc(-c5cn[nH]c5)cc4O)nnc23)CC(C)(C)N1` [Cpd 31, 5-(1H-pyrazol-4-yl)-2-[7-(2,2,6,6-tetramethylpiperidin-4-yl)-5H-pyrrolo[3,2-c]pyridazin-3-yl]phenol]: ≤ 100 nM.
The same measure for `Cc1nc2cc(-c3cc4nnn(C5CC(C)(C)NC(C)(C)C5)c4nn3)c(O)cc2[nH]1` [Cpd 97, 2-methyl-5-[3-(2,2,6,6-tetramethylpiperidin-4-yl)-3H-[1,2,3]triazolo[4,5-c]pyridazin-6-yl]-1H-benzimidazol-6-ol]: ≤ 100 nM; for `Cc1cc(-c2ccc(-c3cc4nnn(C5CC(C)(C)NC(C)(C)C5)c4nn3)c(O)c2)ccn1` [Cpd 73, 5-(2-methylpyridin-4-yl)-2-[3-(2,2,6,6-tetramethylpiperidin-4-yl)-3H-[1,2,3]triazolo[4,5-c]pyridazin-6-yl]phenol]: ≤ 100 nM.
As for `COc1cc(-c2ccc(-c3cc4nnn(C5CC(C)(C)NC(C)(C)C5)c4nn3)c(O)c2)ccn1` [Cpd 77, 5-(2-methoxypyridin-4-yl)-2-[3-(2,2,6,6-tetramethylpiperidin-4-yl)-3H-[1,2,3]triazolo[4,5-c]pyridazin-6-yl]phenol], the IC50 is ≤ 100 nM.
